Results from publication PMC11884936, “MDC1 mediates Pellino recruitment to sites of DNA double-strand breaks” (Life Science Alliance, 2025).
“Also recorded” adds a separate entry of the source. Read-outs that look alike come from different tables or passages of the source. Square brackets hold non-standard residues; d marks the D form. Peptide text beside a SMILES is read from it. pT = C[C@@H](OP(=O)(O)O)[C@H](N)C(=O)O; pS = N[C@@H](COP(=O)(O)O)C(=O)O

Experiments:
Assay type in all cases: binding
[1] = target: T1, Pellino 2 FHA (Homo sapiens, UniProt Q9HAT8); assay: Isothermal titration calorimetry of phosphopeptides with PELI2 FHA fragment; conditions: for DG: ITC Gibbs free energy; for DG / DH / TDS: PELI2 FHA; for DH: ITC change in enthalpy; for TDS: ITC temperature x change in entropy
T1 construct: PELI1 and 2 FHA domains (residues 13–273 and 15–275, respectively); GST (N, cleaved yes); made in house; host or cells: E. coli BL21 (DE3)
T1 sequence (Q9HAT8 15-275): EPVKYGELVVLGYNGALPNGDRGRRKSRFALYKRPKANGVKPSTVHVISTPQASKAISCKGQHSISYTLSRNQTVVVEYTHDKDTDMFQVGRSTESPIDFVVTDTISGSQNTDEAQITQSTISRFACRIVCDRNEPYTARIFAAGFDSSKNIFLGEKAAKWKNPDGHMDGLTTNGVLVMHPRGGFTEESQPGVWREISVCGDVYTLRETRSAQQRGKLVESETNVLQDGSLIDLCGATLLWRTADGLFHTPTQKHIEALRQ
Procedure: (§1) The regions corresponding to the PELI1 and 2 FHA domains (residues 13–273 and 15–275, respectively) were cloned into the pGEX-6P1 vector using BamHI/XhoI restriction sites and expressed as a 3C protease-cleavable N-terminal GST fusion protein in BL21 (DE3) cells (NEB). A 20 ml LB overnight culture was inoculated into 1L of LB medium supplemented with 100 μg/ml ampicillin to an OD600 of 0.05 and incubated at 37°C, 250 rpm until an OD600 of 0.6 was reached, whereupon expression was induced with 1 mM isopropyl ß-D-1-thiogalactopyranoside (IPTG) and overnight incubation at 18°C. Overnight cultures were harvested for 20 min at 4,000g, 4°C and resuspended in 20 ml lysis buffer (50 mM HEPES pH 7.5, 150 mM NaCl, 0.2 mg/ml lysozyme, 20 μg/ml DNase, and 1x complete, EDTA-free protease inhibitor cocktail tablet) before sonication-mediated cell lysis. Insoluble material was removed by centrifugation (21,000g, 20 min) and the GST-FHA fusion proteins were purified from the clarified lysate containers using 1 ml bed volume of pre-equilibrated Glutathione Sepharose 4B beads. After washing with 20 column volumes of Pellino FHA buffer (50 mM HEPES pH 7.5, 150 mM NaCl), the protein was cleaved overnight at 4°C from GST with 1% (vol/vol) GST-3C protease and the flow-through was further purified by gel filtration using a HiLoad 16/60 Superdex 200 pg (Cytiva) column. Purified Pellino FHA domains were concentrated to 50 mg/ml with a 10 kD molecular weight cut-off concentrator (Sartorius).
(§2) For ITC analysis protein and peptides were buffer exchanged into 25 mM HEPES pH 7.0, 200 mM NaCl, 1 mM TCEP. Titrations were carried out using a Microcal PEAQ-ITC (Malvern) using 13 injections of peptide at a typical syringe concentration of 160 μM (1 × 0.4 μl, 12 × 3.0 μl) and FHA concentration of 16 μM in the cell. Data were analyzed with a single-site binding model using Microcal PEAQ-ITC software. Peptide sequences are: MDC1 pT699–AYDLQApTQCFA, MDC1-pT719–[…], MDC1-pT752–AYEVLApTQPFC, MDC1-pT765–AYEDSEpTQPFD, IRAK-pT141(+3Y)–AYSSASpTFLYP, γH2AX–GGKATQApSQEY. All peptides were synthesises with N-terminal acetylation and a C-terminal amide. MDC1 pT699 and pT719 were made with alanine substitutions at the pT+4 position (Leu and Met, respectively) to aid solubility and monodispersity.

[2] = target: T2, Pellino 1 FHA (Homo sapiens, UniProt Q96FA3); assay: Isothermal titration calorimetry of phosphopeptides with PELI1 FHA fragment; conditions: for DG: ITC Gibbs free energy; for DG / DH / TDS: PELI1 FHA; for DG / DH / TDS / Kd: 25 mM HEPES pH 7.0, 200 mM NaCl, 1 mM TCEP; for DH: ITC change in enthalpy; for TDS: ITC temperature x change in entropy; for Kd: PELI1 FHA (residues 13–273) 16 μM in cell, peptide 160 μM in syringe, single-site binding model
T2 construct: PELI1 and 2 FHA domains (residues 13–273 and 15–275, respectively); GST (N, cleaved yes); made in house; host or cells: E. coli BL21 (DE3)
T2 sequence (Q96FA3 13-273): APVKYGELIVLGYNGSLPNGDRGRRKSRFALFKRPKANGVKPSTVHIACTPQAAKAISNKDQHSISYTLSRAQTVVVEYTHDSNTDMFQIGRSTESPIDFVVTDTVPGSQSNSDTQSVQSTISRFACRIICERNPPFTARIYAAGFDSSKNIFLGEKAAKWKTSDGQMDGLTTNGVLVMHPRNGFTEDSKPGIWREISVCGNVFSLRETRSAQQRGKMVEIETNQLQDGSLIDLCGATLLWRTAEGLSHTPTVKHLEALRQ
Procedure: as §1, §2

[3] = target: T3, MDC1 BRCT-r (Homo sapiens, UniProt Q14676); assay: Isothermal titration calorimetry of γH2AX phosphopeptide with MDC1 BRCT-repeat fragment
T3 sequence (Q14676 1883-2089 limits assumed): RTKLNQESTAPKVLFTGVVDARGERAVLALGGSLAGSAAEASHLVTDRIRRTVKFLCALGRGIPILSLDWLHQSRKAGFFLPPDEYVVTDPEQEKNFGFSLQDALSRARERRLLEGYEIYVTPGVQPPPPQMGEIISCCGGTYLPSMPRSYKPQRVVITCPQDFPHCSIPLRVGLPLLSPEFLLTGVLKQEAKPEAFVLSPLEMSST
Procedure: as §2

[4] = 25 mM HEPES pH 7.0, 200 mM NaCl, 1 mM TCEP

Row | Compound | DG [1, 4] [kcal/mol] | DH [1, 4] [kcal/mol] | TDS [1, 4] [kcal/mol] | DG [2] [kcal/mol] | DH [2] [kcal/mol] | TDS [2] [kcal/mol] | Kd ([2]; ITC, read-out: Kd) [nM] | tighter affinity than the other TQXF phosphopeptides ([2]; ITC, compared with the other MDC1 TQXF phosphopeptides) | interaction detected by ITC (in words) ([1]; ITC, N-terminal PELI2 fragment, listed as γH2AX phosphopeptide) | Kd ([1]; ITC, PELI2 FHA (residues 15–275) 16 μM in cell, peptide 160 μM in syringe, 25 mM HEPES pH 7.0, 200 mM NaCl, 1 mM TCEP, single-site binding model) | DG ([3]; ITC Gibbs free energy, MDC1 BRCT-r) [kcal/mol] | DH ([3]; ITC change in enthalpy, MDC1 BRCT-r) [kcal/mol] | TDS ([3]; ITC temperature x change in entropy, MDC1 BRCT-r) [kcal/mol] | Kd ([3]; ITC, MDC1 BRCT-repeat fragment, 25 mM HEPES pH 7.0, 200 mM NaCl, 1 mM TCEP, single-site binding model) [nM] | interaction detected by ITC (in words) ([3]; ITC, purified MDC1 BRCT-repeat fragment, listed as γH2AX phosphopeptide) | interaction detected by ITC (in words) ([2]; ITC, N-terminal PELI1 fragment (13–273), listed as γH2AX phosphopeptide) | Kd ([2]; ITC)
1 | CC(=O)N[C@@H](C)C(=O)N[C@@H](Cc1ccc(O)cc1)C(=O)N[C@@H](CCC(=O)O)C(=O)N[C@@H](CC(=O)O)C(=O)N[C@@H](CCC(=O)O)C(=O)N1CCC[C@H]1C(=O)N[C@H](C(=O)N[C@@H](CCC(N)=O)C(=O)N[C@@H](C)C(=O)N[C@@H](Cc1ccccc1)C(=O)N[C@@H](C)C(N)=O)[C@@H](C)OP(=O)(O)O [MDC1-pT719] (Ac-AYEDEP[pT]QAFA-NH2) | -8.08 | -34.7 | -26.5 | -8.13 | -21.8 | -13.7 | 1140 | – | – | – | – | – | – | – | – | – | –
2 | CC(=O)N[C@@H](C)C(=O)N[C@@H](Cc1ccc(O)cc1)C(=O)N[C@@H](CCC(=O)O)C(=O)N[C@@H](CC(=O)O)C(=O)N[C@@H](CO)C(=O)N[C@@H](CCC(=O)O)C(=O)N[C@H](C(=O)N[C@@H](CCC(N)=O)C(=O)N1CCC[C@H]1C(=O)N[C@@H](Cc1ccccc1)C(=O)N[C@@H](CC(=O)O)C(N)=O)[C@@H](C)OP(=O)(O)O [MDC1-pT765] (Ac-AYEDSE[pT]QPFD-NH2) | -8.77 | -32.7 | -23.9 | -9.08 | -22 | -12.9 | 230 | 5–10 fold | – | – | – | – | – | – | – | – | –
3 | CC(=O)N[C@@H](C)C(=O)N[C@@H](Cc1ccc(O)cc1)C(=O)N[C@@H](CC(=O)O)C(=O)N[C@@H](CC(C)C)C(=O)N[C@@H](CCC(N)=O)C(=O)N[C@@H](C)C(=O)N[C@H](C(=O)N[C@@H](CCC(N)=O)C(=O)N[C@@H](CS)C(=O)N[C@@H](Cc1ccccc1)C(=O)N[C@@H](C)C(N)=O)[C@@H](C)OP(=O)(O)O [MDC1-pT699] (Ac-AYDLQA[pT]QCFA-NH2) | -8.13 | -19.9 | -11.8 | -7.77 | -18.5 | -10.7 | – | – | – | – | – | – | – | – | – | – | –
4 | CC(=O)NCC(=O)NCC(=O)N[C@@H](CCCCN)C(=O)N[C@@H](C)C(=O)N[C@H](C(=O)N[C@@H](CCC(N)=O)C(=O)N[C@@H](C)C(=O)N[C@@H](COP(=O)(O)O)C(=O)N[C@@H](CCC(N)=O)C(=O)N[C@@H](CCC(=O)O)C(=O)N[C@@H](Cc1ccc(O)cc1)C(N)=O)[C@@H](C)O [Peptide H2AX-pS139, reference compound] (Ac-GGKATQA[pS]QEY-NH2) | – | – | – | – | – | – | – | – | did not detect any interaction; also recorded: no detectable interactions | N.D.B. | -8.27 | -13.9 | -5.62 | 850 | bound tightly; also recorded: tight binding | did not detect any interaction; also recorded: no detectable interactions | N.D.B.
5 | CC(=O)N[C@@H](C)C(=O)N[C@@H](Cc1ccc(O)cc1)C(=O)N[C@@H](CCC(=O)O)C(=O)N[C@H](C(=O)N[C@@H](CC(C)C)C(=O)N[C@@H](C)C(=O)N[C@H](C(=O)N[C@@H](CCC(N)=O)C(=O)N1CCC[C@H]1C(=O)N[C@@H](Cc1ccccc1)C(=O)N[C@@H](CS)C(N)=O)[C@@H](C)OP(=O)(O)O)C(C)C [MDC1-pT752] (Ac-AYEVLA[pT]QPFC-NH2) | -8.15 | -28.2 | -20 | -8.1 | -18.5 | -10.3 | 1140 | – | – | – | – | – | – | – | – | – | –
